Reference: patent US8324214B2, “1,3-dihydro-2H-pyrrolo[3,2-bpyridin-2-one derivatives, preparation thereof and therapeutic uses thereof” (Sanofi, priority 2008, dated 2012)
Structures can show the parent of a compound that is named as a salt.

Experiments:
[1] = target: T1, human V1a receptors (Homo sapiens, UniProt P37288); test: Displacement of [3H]-AVP at V1a receptors (binding affinity); settings: for IC50: affinity at human V1a receptors, [3H]-AVP displacement; for selectivity for the human V1a and V1b receptors for AVP (in words): versus V2 / oxytocin receptors
T1 sequence (P37288 whole entry): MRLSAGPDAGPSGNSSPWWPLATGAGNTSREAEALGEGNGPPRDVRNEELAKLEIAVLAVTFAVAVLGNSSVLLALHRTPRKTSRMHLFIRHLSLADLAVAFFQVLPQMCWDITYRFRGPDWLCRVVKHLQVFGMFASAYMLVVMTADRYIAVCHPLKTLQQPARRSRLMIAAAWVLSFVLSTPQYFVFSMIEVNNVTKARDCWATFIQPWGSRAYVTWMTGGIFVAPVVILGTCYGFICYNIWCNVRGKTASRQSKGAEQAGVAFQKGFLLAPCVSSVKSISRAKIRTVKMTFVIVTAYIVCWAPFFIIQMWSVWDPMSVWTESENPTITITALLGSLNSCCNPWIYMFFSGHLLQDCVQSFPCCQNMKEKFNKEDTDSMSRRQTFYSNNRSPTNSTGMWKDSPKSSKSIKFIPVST
Method: The affinity of the compounds of formula (I) according to the invention for the arginine-vasopressin V1a receptors was determined in vitro using the method described by M. Thibonnier et al., J. Biol. Chem., 1994, 269, 3304-3310. This method consisted in studying in vitro the displacement of tritiated arginine-vasopressin ([3H]-AVP) at the V1a receptors present on membrane or cell preparations carrying the rat or human V1a receptors.

[2] = target: T2, human V1b receptors (Homo sapiens, UniProt P47901); test: Displacement of [3H]-AVP at V1b receptors (binding affinity); settings: [3H]-AVP displacement
T2 sequence (P47901 1-424): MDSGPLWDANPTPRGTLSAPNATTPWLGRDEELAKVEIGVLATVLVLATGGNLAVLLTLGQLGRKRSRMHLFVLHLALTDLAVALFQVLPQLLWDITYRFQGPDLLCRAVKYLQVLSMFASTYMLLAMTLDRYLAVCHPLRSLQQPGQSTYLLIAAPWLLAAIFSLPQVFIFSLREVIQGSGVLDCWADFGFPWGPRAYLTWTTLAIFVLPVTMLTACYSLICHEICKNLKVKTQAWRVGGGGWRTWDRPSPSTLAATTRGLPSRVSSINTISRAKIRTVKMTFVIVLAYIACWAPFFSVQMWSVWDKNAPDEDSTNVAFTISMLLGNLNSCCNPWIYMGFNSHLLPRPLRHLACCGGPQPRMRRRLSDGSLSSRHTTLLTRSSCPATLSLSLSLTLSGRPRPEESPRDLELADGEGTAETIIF
Method: The affinity of the compounds of formula (I) according to the invention for the arginine-vasopressin V1b receptors was determined in vitro using the method described by Y. de Keyser et al. in Febs Letters, 1994, 356, 215-220. This method consists in studying in vitro the displacement of tritiated arginine-vasopressin ([3H]-AVP) at the V1b receptors present on cell preparations carrying the human V1b receptors.

[3] = target: human V2 receptors (Homo sapiens, UniProt P30518); test: Affinity for vasopressin V2 receptors; assay type: binding; settings: for IC50: affinity at human V2 receptors
Sequence of human V2 receptors (P30518 whole entry): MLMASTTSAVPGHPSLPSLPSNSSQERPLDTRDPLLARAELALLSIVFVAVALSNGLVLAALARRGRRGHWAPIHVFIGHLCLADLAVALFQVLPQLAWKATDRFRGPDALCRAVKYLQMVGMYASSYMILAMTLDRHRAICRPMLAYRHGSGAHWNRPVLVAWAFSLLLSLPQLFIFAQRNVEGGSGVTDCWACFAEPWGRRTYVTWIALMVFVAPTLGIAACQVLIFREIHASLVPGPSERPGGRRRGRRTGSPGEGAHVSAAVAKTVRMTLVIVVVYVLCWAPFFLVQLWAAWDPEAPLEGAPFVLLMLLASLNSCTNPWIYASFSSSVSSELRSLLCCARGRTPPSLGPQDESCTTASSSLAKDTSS
Excerpt: Th affinity of the compounds of formula (I) according to the invention for the vasopressin V2 receptors was also studied (method described by M. Birnbaumer et al. in Nature (Lond.), 1992, 357, 333-335).

[4] = target: T3, human uterine oxytocin receptor (Homo sapiens, UniProt P30559); test: Displacement of radioiodinated oxytocin analogue at oxytocin receptors; assay type: binding; settings: for IC50: affinity at human oxytocin receptors
T3 construct: expressed in transfected cells
T3 sequence (P30559 1-389): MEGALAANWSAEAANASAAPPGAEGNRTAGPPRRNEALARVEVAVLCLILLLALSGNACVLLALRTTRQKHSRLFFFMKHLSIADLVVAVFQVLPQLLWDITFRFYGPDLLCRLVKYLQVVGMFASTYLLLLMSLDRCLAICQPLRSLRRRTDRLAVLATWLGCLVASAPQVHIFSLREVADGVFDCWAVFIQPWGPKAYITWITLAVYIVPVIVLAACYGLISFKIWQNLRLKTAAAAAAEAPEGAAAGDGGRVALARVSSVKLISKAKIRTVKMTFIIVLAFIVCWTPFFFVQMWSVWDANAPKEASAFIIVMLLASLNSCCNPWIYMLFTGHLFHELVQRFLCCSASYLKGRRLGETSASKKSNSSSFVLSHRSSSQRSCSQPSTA
Method: The affinity of the compounds according to the invention for the oxytocin receptors was determined in an in vitro binding test using the method described by J. Elands et al. in Eur. J. Pharmacol., 1987, 147, 197-207. This method consists in studying in vitro the displacement of a radioiodinated analogue of oxytocin at the oxytocin receptors in a membrane preparation of cells transfected with the human uterine oxytocin receptor.

[5] = target: T1, human V1a receptors; test: Intracellular calcium measurement (FLIPR) on cells expressing V1a receptors; assay type: cell-based; settings: FLIPR and platelet aggregation tests; blocking effects caused by arginine-vasopressin
Method: The agonist or antagonist character of the compounds is determined in vitro in a test for measuring intracellular calcium (FLIPR) on cells expressing the human V1a receptors according to the general technique described in Sullivan et al, Methods Mol. Biol., 1999, 114, 125-133, using 1 μM Fluo-4 AM and in an AVP-induced platelet aggregation test on human PRP (platelet rich plasma) according to the methodology described in J. Clin. Invest., 1993, 92, 224.231. The compounds are preincubated for 30 minutes before the addition of arginine vasopressin in order to determine the agonist and antagonist properties of these molecules.

`COc1cccc(S(=O)(=O)N2C(=O)C(CCCN3CCCCC3)(c3ccccc3F)c3nc(OC)ccc32)c1.Cl` (single isomer, unassigned) showed a melting point of 148 °C.

`COc1ccc2c(n1)C(CCCN1CCCCC1)(c1ccccc1F)C(=O)N2S(=O)(=O)c1ccc(OC(F)F)cc1` (centres unmarked) (as salt: HCl) gave a melting point of 133 °C.

`COc1ccc2c(n1)C(CCCN1CCN(C)CC1)(c1ccccc1F)C(=O)N2S(=O)(=O)c1ccc(OC(C)C)cc1` (centres unmarked) [compound 11, 3-(2-fluorophenyl)-1-[(4-isopropoxyphenyl)sulphonyl]-5-methoxy-3-[3-(4-methylpiperazin-1-yl)propyl]-1,3-dihydro-2H-pyrrolo[3,2-b]pyridin-2-one] showed an IC50 [1] of 7.1 nM, an IC50 [2] greater than 1000 nM and an IC50 [3] of 210 nM. The IC50 [4] was 100 nM.

In the case of `COc1ccc2c(n1)C(CCCN1CCNCC1)(c1ccccc1F)C(=O)N2S(=O)(=O)c1ccc(OC(C)C)cc1` (centres unmarked) [Compound No. 2, 3-(2-fluorophenyl)-1-[(4-isopropoxyphenyl)sulphonyl]-5-methoxy-3-(3-piperazin-1-ylpropyl)-1,3-dihydro-2H-pyrrolo[3,2-b]pyridin-2-one], the IC50 [1] is reported as 0.82 nM, the IC50 [2] is reported as 350 nM and the IC50 [3] is reported as 120 nM. For the same compound, the IC50 [4] was 71 nM.

With `COc1ccc2c(n1)C(CCCN1CCN(C)CC1)(c1ccccc1F)C(=O)N2S(=O)(=O)c1ccc(OC(C)C)cc1` (centres unmarked) (as salt: HCl) [compound 11, 3-(2-fluorophenyl)-1-[(4-isopropoxyphenyl)sulphonyl]-5-methoxy-3-[3-(4-methylpiperazin-1-yl)propyl]-1,3-dihydro-2H-pyrrolo[3,2-b]pyridin-2-one] the melting point was 190 °C.

For `COc1ccc2c(n1)C(CCCN1CCNCC1)(c1ccccc1F)C(=O)N2S(=O)(=O)c1ccc(OC(C)C)cc1` (centres unmarked) (as salt: HCl) [Compound No. 2, 3-(2-fluorophenyl)-1-[(4-isopropoxyphenyl)sulphonyl]-5-methoxy-3-(3-piperazin-1-ylpropyl)-1,3-dihydro-2H-pyrrolo[3,2-b]pyridin-2-one], the melting point was 123 °C.

In the case of `COc1ccc2c(n1)C(CCCCN1CCNCC1)(c1ccccc1F)C(=O)N2S(=O)(=O)c1ccc(OC(C)C)cc1` (racemic) (as salt: HCl) [Compound No. 10, 3-(2-Fluorophenyl)-1-[(4-isopropoxyphenyl)sulphonyl]-5-methoxy-3-(4-piperazin-1-ylbutyl)-1,3-dihydro-2H-pyrrolo[3,2-b]pyridin-2-one], the melting point is reported as 210 °C.

In the case of `Cc1ccc2c(n1)C(CCCN1CCNCC1)(c1ccccc1F)C(=O)N2S(=O)(=O)c1ccc(OC(C)C)cc1.Cl` (single isomer, unassigned), the melting point is reported as 150 °C.

With `COc1ccc2c(n1)C(CCCCN1CCNCC1)(c1ccccc1F)C(=O)N2S(=O)(=O)c1ccc(OC(C)C)cc1` (centres unmarked) (as salt: HCl) [compound 14, 3-(2-fluorophenyl)-1-[(4-isopropoxyphenyl)sulphonyl]-5-methoxy-3-(4-piperazin-1-ylbutyl)-1,3-dihydro-2H-pyrrolo[3,2-b]pyridin-2-one] the melting point was 133 °C.

In the case of `COc1ccc2c(n1)C(CCCN1CCCCC1)(c1ccccc1F)C(=O)N2S(=O)(=O)c1cccc(Cl)c1` (centres unmarked) (as salt: HCl), the melting point is reported as 148 °C.

In the case of `COc1ccc2c(n1)C(CCCN1CCNCC1)(c1ccccc1F)C(=O)N2S(=O)(=O)c1cccc(Cl)c1` (centres unmarked) [No. 4], the “agonist or antagonist character” value [5] is reported as “V1a receptor antagonists”.

With `COc1cccc(S(=O)(=O)N2C(=O)C(CCCN3CCNCC3)(c3ccccc3F)c3nc(OC)ccc32)c1.Cl` (single isomer, unassigned) the melting point was 178 °C.

For `CCN(CC)C(=O)Nc1ccc(S(=O)(=O)N2C(=O)C(NCCC3CCNCC3)(c3ccccc3Cl)c3cc(Cl)c(C)cc32)cc1` (stereo not drawn) [Compound β, 3-[4-[[5-chloro-3-(2-chlorophenyl)-6-methyl-2-oxo-3-[(2-piperidin-4-ylethyl)amino]-2,3-dihydro-1H-indol-1-yl]sulphonyl]phenyl]-1-diethylurea], the “affinity for the human V1a receptors for AVP (in words)” value [1] was “good affinity”, the IC50 [1] was 18 nM and the “selectivity for the human V1a and V1b receptors for AVP (in words)” value [1] was “not therefore selective”. The IC50 [2] was 180 nM, the “affinity for the human V2 receptors for AVP (in words)” value [3] was “good affinity” and the IC50 [3] was 13 nM. The IC50 [4] was 69 nM.

`COc1ccc2c(n1)C(CCCN1CCNCC1)(c1ccccc1F)C(=O)N2S(=O)(=O)c1cccc(Cl)c1` (centres unmarked) [compound 4, 1-[(3-chlorophenyl)sulphonyl]-3-(2-fluorophenyl)-5-methoxy-3-(3-piperazin-1-ylpropyl)-1,3-dihydro-2H-pyrrolo[3,2-b]pyridin-2-one] gave an IC50 [1] of 8.9 nM, an IC50 [2] greater than 1000 nM and an IC50 [3] greater than 1000 nM. It also gave an IC50 [4] greater than 1000 nM.

With `COc1ccc2c(n1)C(CCCCN1CCN(C)CC1)(c1ccccc1F)C(=O)N2S(=O)(=O)c1ccc(OC(C)C)cc1` (centres unmarked) (as salt: salt) the melting point was 52 °C.

In the case of `CCN(CC)C(=O)Nc1ccc(S(=O)(=O)N2C(=O)C(NCCC3CCNCC3)(c3ccccc3Cl)c3cc(Cl)c(Cl)cc32)cc1` (stereo not drawn) [Compound α, 3-[4-[[5,6-dichloro-3-(2-chlorophenyl)-2-oxo-3-[(2-piperidin-4-ylethyl)amino]-2,3-dihydro-1H-indol-1-yl]sulphonyl]phenyl]-1,1-diethylurea], the “affinity for the human V1a receptors for AVP (in words)” value [1] is reported as “good affinity”, the IC50 [1] is reported as 23 nM and the “selectivity for the human V1a and V1b receptors for AVP (in words)” value [1] is reported as “not therefore selective”. The IC50 [2] was 210 nM, the “affinity for the human V2 receptors for AVP (in words)” value [3] was “good affinity” and the IC50 [3] was 19 nM. For the same compound, the “affinity for the oxytocin receptors (in words)” value [4] was “good affinity” and the IC50 [4] was 100 nM.

`COc1ccc2c(n1)C(CCCN1CCNCC1)(c1ccccc1F)C(=O)N2S(=O)(=O)c1cccc(Cl)c1` (centres unmarked) (as salt: HCl) [compound 4, 1-[(3-chlorophenyl)sulphonyl]-3-(2-fluorophenyl)-5-methoxy-3-(3-piperazin-1-ylpropyl)-1,3-dihydro-2H-pyrrolo[3,2-b]pyridin-2-one] gave a melting point of 177 °C.

For `COc1ccc2c(n1)C(CCCN1CCCCC1)(c1ccccc1F)C(=O)N2S(=O)(=O)c1ccc(OC(C)C)cc1` (centres unmarked) (as salt: HCl), the melting point was 157 °C.

In the case of `COc1ccc2c(n1)C(CCCN1CCNCC1)(c1ccccc1F)C(=O)N2S(=O)(=O)c1ccc(OC(C)C)cc1` (centres unmarked) [No. 2], the “agonist or antagonist character” value [5] is reported as “V1a receptor antagonists”.
